Laboratory results reported in paper PMC8000724, “Trans-Epithelial Transport, Metabolism, and Biological Activity Assessment of the Multi-Target Lupin Peptide [sequence] (P5) and Its Metabolite [sequence] (P5-Met)” (Nutrients, 2021).

What was measured:
[1] = system: differentiated Caco-2 cells (AP membrane peptidases); experiment: Metabolites of P5 produced by Caco-2 cell peptidases, MS analysis of AP solutions; type: in vitro ADME, human; set-up: key to Metabolite of P5 identified in the AP compartment: Mixture / Metabolite of P5 identified in the AP compartment: Alone: x, detected; n.d., not detected
Protocol: Prior to experiments, the cell monolayer integrity and differentiation were checked by TEER measurement as described in detail above. Peptide trans-epithelial passage was assayed in differentiated Caco-2 cells in transport buffer solution (137 mM NaCl, 5.36 mM KCl, 1.26 mM CaCl2, and 1.1 mM MgCl2, 5.5 mM glucose) according to previously described conditions. In order to reproduce the pH conditions existing in vivo in the small intestinal mucosa, the apical (AP) solutions were maintained at pH 6.0 (buffered with 10 mM morpholinoethane sulfonic acid), and the basolateral (BL)solutions were maintained at pH 7.4 (buffered with 10 mM […]). Prior to transport experiments, cells were washed twice with 500 µL PBS containing Ca^++ and Mg^++. Peptide transportation by mature Caco-2 cells was assayed by loading the AP compartment with P5 alone, in mixture with […] (P3) and […] (P7), and/or P5-met (500 μM) in the AP transport solution (500 µL) and the BL compartment with the BL transport solution (700 µL). The plates were incubated at 37 °C and the BL solutions were collected at different time points (i.e., 15, 30, 60, 90, and 120 min) and replaced with fresh solutions pre-warmed at 37 °C. All BL and AP solutions collected at the end of the transport experiment were stored at −80 °C prior to analysis. Three independent transport experiments were performed, each in duplicate. In order to assess the involvement of transcytotic process in peptides passage, parallel transport experiments were performed in the presence of 500 nM wortmannin in both the AP and BL compartment, over 60 min incubation time.
The medium collected at the end of transport experiments from AP and BL chambers (500 µL and 700 µL, respectively) were freeze-dried and residues were solubilized in HPLC water (100 µL). Samples were desalted with C18 resin ZipTip by using 80% ACN, 0.1% FA as eluent (Millipore Corporation, Bedford, MA, USA). Each sample was lyophilized under speed-vacuum for 5 h at 30°C and re-dissolved in 50 μL (0.1% formic acid), before MS analysis. Purified BL samples were analyzed on a SL IT mass spectrometer interfaced with a HPLC- Chip Cube source (Agilent Technologies, Palo Alto, CA, USA). Data were processed with MSD Trap control 4.2, and Data analysis 4.2 version (Agilent Technologies, Palo Alto, CA, USA). The chromatographic separation was performed using a 1200 HPLC system equipped with a binary pump. […] Specifically, The monitored MRM transitions of P5-met were from the mono-charged precursor ion [M^+H]^+ (m/z 882.43) to product-ions m/z 678.3 and 407.1, respectively. […]

LDLR = experiment: Western blot, LDLR protein level in HepG2 cells; type: cell-based, human; settings: HepG2, 50 µM, 24 h, mean ± SD
Protocol: (§1) The HepG2 cell line was bought from ATCC (HB-8065, ATCC from LGC Standards, Milan, Italy) and was cultured in DMEM high glucose with stable L-glutamine, supplemented with 10% FBS, 100 U/mL penicillin, 100 µg/mL streptomycin (complete growth medium) with incubation at 37 °C under 5% CO2 atmosphere.
(§2) Immunoblotting experiments were performed using optimized protocol. A total of 1.5 × 10^5 HepG2 cells/well (24-well plate) were treated with 50 μM of P5 and P5-met for 24 h. After each treatment, the supernatants were collected and stored at −20°C; cells were scraped in 40 µL ice-cold lysis buffer (RIPA buffer + inhibitor cocktail + 1:100 PMSF + 1:100 Na-orthovanadate + 1:1000 β-mercaptoethanol) and transferred in ice-cold microcentrifuge tubes. […] Total proteins were quantified by the Bradford’s method and 50 μg of total proteins loaded on a pre-cast 7.5% Sodium Dodecyl Sulfate-Polyacrylamide (SDS-PAGE) gel at 130 V for 45 min. […] Target proteins, on milk or BSA blocked membrane, were detected by primary antibodies as follows: anti-SREBP-2, anti-LDLR, anti-HMGCoAR, anti-PCSK9, anti HNF1-α and anti-β-actin. Secondary antibodies conjugated with HRP and a chemiluminescent reagent were used to visualize target proteins and their signal was quantified using the Image Lab Software (Biorad, Hercules, CA, USA). […]

HNF-1α = experiment: Western blot, HNF-1α protein level in HepG2 cells; type: cell-based, human; settings: HepG2, 50 µM, 24 h, mean ± SD
Protocol: as §1, §2

For H-LPKHSDAD-OH [Peptide P5-met], the “Spectral Intensity of the metabolite in the AP compartment” value ([1]; Caco-2, AP compartment, end of incubation 120 min, used as measure of metabolite abundance) was 1.21 × 10^7, the “Metabolite of P5 identified in the AP compartment: Alone” value ([1]; P5 incubated alone (500 μM), Caco-2, end of incubation 120 min) was “x” and the “Metabolite of P5 identified in the AP compartment: Mixture” value ([1]; P5 incubated in mixture with P3 and P7 (500 μM each), Caco-2, end of incubation 120 min) was “x”. The “LDLR protein level versus the control” value (LDLR) was 150.4 ± 29.2% and the “Decrease of HNF-1α protein” value (HNF-1α) was 10.8 ± 3.5%.
